Experiments:
LRRK2 G2019S [1] = target: T1, LRRK2 G2019S (Homo sapiens, UniProt Q5S007, G2019S); test: LRRK2 G2019S kinase activity inhibition, 33P-ATP P81 filter-binding (Reaction Biology); format: biochemical
Method: (§1) The six hit compounds from the virtual screening were ordered from Selleckchem (Houston, Texas, USA). […] Stocks of all compounds were shipped to Reaction Biology Corporation (Malvern, Pennsylvania, USA) and Eurofins DiscoverX (Fremont, California, USA) for IC50 and Kd determination, respectively. The IC50 and Kd assays were performed as service by the companies.
Compounds were dissolved and diluted in 100% DMSO. […] Compounds were delivered into the reaction mixture. After a 20 min incubation, ^33P-ATP was added to a final concentration of 10 μM to initiate the reaction. Reactions were carried out for 2 h at room temperature. The final enzyme and substrate concentrations were 20 nM and 20 μM, respectively. Kinase activity was detected by the P81 filter-binding method. The whole procedure is also described in [40].
(§2) A specific challenge to our drug repositioning approach was the use of a homolog structure as template instead of a LRRK2 structure. To validate the virtual screening results, all six top candidates were tested for in vitro inhibition of LRRK2 kinase activity.

LRRK2 G2019S [2] = target: T1, LRRK2 G2019S; test: KINOMEscan competition binding assay (Eurofins DiscoverX); conditions: competition with active-site directed ligand, duplicates
Method: as §1
The compounds were tested at 11 different concentrations in duplicates with 3-fold serial dilution starting at 100 μM. Compounds were dissolved and diluted in 100% DMSO. […] Shortly, streptavidin-coated magnetic beads were treated with the biotinylated competitive ligand for 30 min at room temperature. The liganded beads were blocked with excess biotin and washed with blocking buffer (SeaBlock (Pierce), 1% BSA, 0.05% Tween 20, 1 mM DTT) to remove unbound ligand and to reduce non-specific binding. […] The kinase concentration in the eluates was measured by qPCR.
as §2

[3] = cited from earlier work; for BBB Permeable: prediction confirmed or corrected by literature
[4] = peptide substrate, 10 μM ATP, duplicates

| SMILES | IC50 (LRRK2 G2019S [1]; [4]) | Kd (LRRK2 G2019S [2]) | IC50 (LRRK2 G2019S [1]; values in text) | BBB Permeable [3] | brain penetration ([3]; statement in discussion) |
| --- | --- | --- | --- | --- | --- |
| Fc1ccc([C@@H]2CCNC[C@H]2COc2ccc3c(c2)OCO3)cc1 [Paroxetine] | > 100 µM | > 100 µM | – | supported by literature and Yes | – |
| C[C@H]1Oc2cc(cnc2N)-c2c(nn(C)c2C#N)CN(C)C(=O)c2ccc(F)cc21 [Lorlatinib] | – | – | – | – | brain penetrant |
| C[C@@H](Oc1cc(-c2cnn(C3CCNCC3)c2)cnc1N)c1c(Cl)ccc(F)c1Cl [Crizotinib] | – | – | – | poor and No | – |
| CCN(CC)CCNC(=O)c1c(C)[nH]c(/C=C2\C(=O)Nc3ccc(F)cc32)c1C [Sunitinib] | – | – | – | supported by literature and Yes | – |

Second part, led by results:

| IC50 (LRRK2 G2019S [1]; [4]) | Kd (LRRK2 G2019S [2]) | IC50 (LRRK2 G2019S [1]; values in text) | SMILES | BBB Permeable [3] | brain penetration ([3]; statement in discussion) |
| --- | --- | --- | --- | --- | --- |
| – | > 100 µM | 47 µM | CCCc1nc(C)c2c(=O)[nH]c(-c3cc(S(=O)(=O)N4CCN(CC)CC4)ccc3OCC)nn12 [Vardenafil] | – | – |
| > 100 µM | > 100 µM | – | O=C1Nc2ccc(Cl)cc2[C@@](C#CC2CC2)(C(F)(F)F)O1 [Efavirenz] | supported by literature and Yes | – |
| < 0.0051 µM | 0.79 µM | – | O=C1Nc2ccc(I)cc2/C1=C/c1cc(Br)c(O)c(Br)c1 [GW 5074] | – | – |

From publication PMC8258795 (Computational and Structural Biotechnology Journal, 2021)
